Reference: ChEMBL document CHEMBL3779811, “A new dammarane-type saponin from Gynostemma pentaphyllum induces apoptosis in A549 human lung carcinoma cells” (Bioorg Med Chem Lett, 2016)
Values after ≈ are worked out from the molar mass of the structure shown. Active and inactive are the calls of the source. The calls are words filed in the database; no cut-off is given here.

Tests used:
[1] = system: A549; assay: Cytotoxicity against human A549 cells assessed as decrease in viable cells at 60 ug/mL after 48 hrs by CCK-8 assay; assay type: functional
[2] = system: A549; assay: Cytotoxicity against human A549 cells assessed as decrease in viable cells after 48 hrs by CCK-8 assay; assay type: functional, cell-based; details: for IC50: A549, 48 h
[3] = system: A549; assay: Induction of apoptosis in human A549 cells assessed as round and shrunken cells at 50 ug/mL after 48 hrs by inverted microscopy; assay type: functional, cell-based
[4] = system: A549; assay: Induction of apoptosis in human A549 cells assessed as mitochondrial membrane potential at 50 ug/ml after 48 hrs by JC-1 staining based flow cytometry (reference value: 96.66%); assay type: functional
[5] = system: A549; assay: Induction of apoptosis in human A549 cells assessed as mitochondrial depolarization at 50 ug/ml after 48 hrs by JC-1 staining based fluorescence microscopy; assay type: functional, cell-based
[6] = system: A549; assay: Induction of apoptosis in human A549 cells assessed as viable cells at 50 ug/mL after 48 hrs by Annexin V-FITC/propidium iodide staining based flow cytometry (reference value: 91.46 %); assay type: functional; details: A549, 48 h, read-out: Activity
[7] = system: A549; assay: Induction of apoptosis in human A549 cells assessed as chromatin condensation at 50 ug/mL after 48 hrs by Hoechst-33258 staining based fluorescence microscopy; assay type: functional, cell-based
[8] = system: A549; assay: Induction of apoptosis in human A549 cells assessed as loss of mitochondrial membrane potential by measuring ratio of red to green fluorescence at 50 ug/ml after 48 hrs by JC-1 staining based flow cytometry (reference value: 28.9); assay type: functional
[9] = system: A549; assay: Induction of apoptosis in human A549 cells assessed as increase in detached cells at 50 ug/ml after 48 hrs by inverted microscopy; assay type: functional, cell-based
[10] = system: A549; assay: Induction of apoptosis in human A549 cells assessed as necrotic cells at 50 ug/mL after 48 hrs by Annexin V-FITC/propidium iodide staining based flow cytometry (reference value: 0.59 %); assay type: functional
[11] = system: A549; assay: Induction of apoptosis in human A549 cells assessed as late apoptotic cells at 50 ug/mL after 48 hrs by Annexin V-FITC/propidium iodide staining based flow cytometry (reference value: 3.38 %); assay type: functional
[12] = system: A549; assay: Induction of apoptosis in human A549 cells assessed as early apoptotic cells at 50 ug/mL after 48 hrs by Annexin V-FITC/propidium iodide staining based flow cytometry (reference value: 4.57 %); assay type: functional

## CC(C)=CCC[C@@](C)(O)[C@H]1CC[C@]2(C)[C@@H]1[C@H](O)C[C@@H]1[C@@]3(C)C[C@@H](O)[C@H](O[C@@H]4O[C@H](CO)[C@@H](O)[C@H](O)[C@H]4O[C@@H]4O[C@H](CO)[C@@H](O)[C@H](O)[C@H]4O)C(C)(C)[C@@H]3CC[C@]12C
[1]
  Activity: 30%
[2]
  Activity: Dose-dependent effect
  IC50: 91 µg/mL (≈ 114 µM)

## CC(C)=CCC[C@@](C)(O[C@@H]1O[C@H](CO)[C@@H](O)[C@H](O)[C@H]1O)[C@@H]1CC[C@@]2(C)[C@H]1[C@@H](O)C[C@H]1[C@]3(C)C[C@H](O)[C@@H](O[C@H]4O[C@@H](CO)[C@H](O)[C@@H](O)[C@@H]4O[C@H]4O[C@@H](CO)[C@H](O)[C@@H](O)[C@@H]4O)C(C)(C)[C@H]3CC[C@@]12C
[2]
  IC50: 112 µg/mL (≈ 116 µM)

## CC(C)=CCC[C@](C)(O)[C@@H]1CC[C@@]2(C)[C@H]1[C@@H](O)C[C@H]1[C@]3(C)C[C@H](O)[C@@H](O[C@H]4O[C@@H](CO)[C@H](O)[C@@H](O)[C@@H]4O)C(C)(C)[C@H]3CC[C@@]12C
[3]
  Activity: Active
[4]
  Activity: 89.64%
[5]
  Activity: Active
[6]
  viability at 50 µg/mL: 81.5%
[7]
  Activity: Active
[8]
  Ratio: 8.7
[9]
  Activity: Active
[1]
  Activity: 44.7%
[10]
  Activity: 1.44%
[2]
  Activity: Dose-dependent effect
  IC50: 74.3 µg/mL (≈ 116 µM)
[11]
  Activity: 2.74%
[12]
  Activity: 14.34%

## CC(C)=CCC[C@@](C)(O[C@@H]1O[C@H](CO[C@H]2OC[C@H](O)[C@@H](O)[C@@H]2O)[C@@H](O)[C@H](O)[C@H]1O)[C@@H]1CC[C@@]2(C)[C@H]1[C@@H](O)C[C@H]1[C@]3(C)C[C@H](O)[C@@H](O[C@H]4O[C@@H](CO)[C@H](O)[C@@H](O)[C@@H]4O[C@H]4O[C@@H](CO)[C@H](O)[C@@H](O)[C@@H]4O)C(C)(C)[C@H]3CC[C@@]12C
[2]
  IC50: 168 µg/mL (≈ 153 µM)

## CC(=O)OC[C@H]1O[C@@H](O[C@H]2[C@H](O[C@H]3[C@H](O)C[C@]4(C)[C@H]5C[C@@H](O)[C@@H]6[C@@H](/C(C)=C\CC=C(C)C)CC[C@@]6(C)[C@]5(C)CC[C@H]4C3(C)C)O[C@H](CO)[C@@H](O)[C@@H]2O)[C@H](O)[C@@H](O)[C@@H]1O
[2]
  IC50: 61.2 µg/mL (≈ 74.2 µM)

## C=C(CCC=C(C)C)[C@H]1CC[C@]2(C)[C@@H]1[C@H](O)C[C@@H]1[C@@]3(C)C[C@@H](O)[C@H](O[C@@H]4O[C@H](CO)[C@@H](O)[C@H](O)[C@H]4O[C@@H]4O[C@H](COC(C)=O)[C@@H](O)[C@H](O)[C@H]4O)C(C)(C)[C@@H]3CC[C@]12C
[2]
  IC50: 40.4 µg/mL (≈ 49 µM)

## CC(C)=CCC[C@](C)(O)[C@H]1CC[C@]2(C)[C@@H]1[C@H](O)C[C@@H]1[C@@]3(C)C[C@@H](O)[C@H](O[C@@H]4O[C@H](CO)[C@@H](O)[C@H](O)[C@H]4O[C@@H]4O[C@H](CO)[C@@H](O)[C@H](O)[C@H]4O)C(C)(C)[C@@H]3CC[C@]12C
[1]
  Activity: 37.2%
[2]
  Activity: Dose-dependent effect
  IC50: 78.6 µg/mL (≈ 98.1 µM)

## CC(C)=CC/C=C(/C)[C@H]1CC[C@]2(C)[C@@H]1[C@H](O)C[C@@H]1[C@@]3(C)C[C@@H](O)[C@H](O[C@@H]4O[C@H](CO)[C@@H](O)[C@H](O)[C@H]4O[C@@H]4O[C@H](CO)[C@@H](O)[C@H](O)[C@H]4O)C(C)(C)[C@@H]3CC[C@]12C
[2]
  IC50: 29 µg/mL (≈ 37 µM)

## C=C(CCC=C(C)C)[C@H]1CC[C@]2(C)[C@@H]1[C@H](O)C[C@@H]1[C@@]3(C)C[C@@H](O)[C@H](O[C@@H]4O[C@H](CO)[C@@H](O)[C@H](O)[C@H]4O[C@@H]4O[C@H](CO)[C@@H](O)[C@H](O)[C@H]4O)C(C)(C)[C@@H]3CC[C@]12C [DAMULIN B]
[2]
  IC50: 23.8 µg/mL (≈ 30.4 µM)
